The values below come from patent EP3919042A1, “COMPOSITION WITH SILANOL, ETHANOL AND WATER FOR GLOBAL DI[…]” (Sil'Innov scrl, priority 2020, dated 2021).

The nature of this data set: stability of MMST in water without stabilizers. The class given is physicochemical. The settings on record: stability declines at higher concentrations. The procedure: In a preferred embodiment of a composition according to the first aspect of the invention, the composition comprises monomethylsilanetriol (MMST). Monomethylsilanetriol (MMST, MeSiOH3 or Si(OH)3CH3) is an organosilanol. […] This organosilanol is highly bioavailable. […] MMST can advantageously be used without stabilizers in silicon equivalent concentrations up to 300 mg/l. The stability of MMST is dependent on concentration and declines at higher concentrations. The stability can further be enhanced by the use of stabilizing agents. In a preferred embodiment the stabilizing agent is based on phenol or polyphenol as described above. The same reasoning applies, mutatis mutandis, with respect to stabilizing effect on the free hydroxyl groups.

In the case of `C[Si](O)(O)O` [MMST, monomethylsilanetriol], the “silicon equivalent concentration usable without stabilizers” value is given as “up to 300 mg/l”.
